Reference: PubChem BioAssay (NCI)
“And” between values parts separate entries of the source, which are not always exact repeats. Equal entries are not always repeated.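 Compound exposure: 48 hours, 5 concentrations, 96-well plates. The concentration for 50% growth inhibition is given as GI50. TGI denotes the concentration required for complete inhibition of growth.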

What was measured:
Assay in all cases: NCI anticancer screen, dose series, 48 h
HS 578T breast = tested on: HS 578T breast
SF-268 CNS = tested on: SF-268 CNS
SW-620 colon = tested on: SW-620 colon
U251 CNS = tested on: U251 CNS
HCT-116 colon = tested on: HCT-116 colon
HOP-92 NSCLC = tested on: HOP-92 NSCLC
SK-MEL-2 melanoma = tested on: SK-MEL-2 melanoma
SNB-19 CNS = tested on: SNB-19 CNS
SK-MEL-5 melanoma = tested on: SK-MEL-5 melanoma
UACC-257 melanoma = tested on: UACC-257 melanoma

Structure (SMILES): CC(C)(C)OC(=O)N1[C@@H]2Cc3ccc(N)cc3[C@@]1(C)c1ccccc12
- TGI (HS 578T breast): > 100 µM
- TGI (SF-268 CNS): > 100 µM
- TGI (SW-620 colon): > 100 µM
- TGI (U251 CNS): 32.4 µM
- TGI (HCT-116 colon): 37.1 µM
- TGI (HOP-92 NSCLC): 52.3 µM
- TGI (SK-MEL-2 melanoma): 43.4 µM
- TGI (SNB-19 CNS): > 100 µM
- TGI (SK-MEL-5 melanoma): 12.4 µM
- TGI (UACC-257 melanoma): 78.2 µM

Structure (SMILES): CC(=O)N(C(C)=O)n1c(Cc2ccc(C)cc2)nn(C(C)=O)c1=O
- TGI (HS 578T breast): > 100 µM
- TGI (SF-268 CNS): > 100 µM
- TGI (SW-620 colon): > 100 µM
- TGI (U251 CNS): > 100 µM
- TGI (HCT-116 colon): > 100 µM
- TGI (HOP-92 NSCLC): > 100 µM
- TGI (SK-MEL-2 melanoma): > 100 µM
- TGI (SNB-19 CNS): > 100 µM
- TGI (SK-MEL-5 melanoma): > 100 µM
- TGI (UACC-257 melanoma): > 100 µM

Structure (SMILES): CCN(CC)CCOC(=O)Cc1cccc2c(=O)cc(-c3ccccc3)oc12
- TGI (HS 578T breast): 62.5 µM
- TGI (SF-268 CNS): 62.5 µM and > 165 µM
- GI50 (SW-620 colon): 123 µM
- TGI (SW-620 colon): 62.5 µM and > 251 µM
- GI50 (U251 CNS): 57.9 µM
- TGI (U251 CNS): 62.5 µM and > 121 µM
- GI50 (HCT-116 colon): 85.1 µM
- TGI (HCT-116 colon): 62.5 µM and > 153 µM
- GI50 (HOP-92 NSCLC): 8.02 µM
- TGI (HOP-92 NSCLC): 42.6 µM and 82.5 µM
- GI50 (SK-MEL-2 melanoma): 52.9 µM
- TGI (SK-MEL-2 melanoma): 62.5 µM and > 212 µM
- GI50 (SNB-19 CNS): 112 µM
- TGI (SNB-19 CNS): 62.5 µM and > 211 µM
- GI50 (SK-MEL-5 melanoma): 81.5 µM
- TGI (SK-MEL-5 melanoma): 62.5 µM and > 186 µM
- GI50 (UACC-257 melanoma): 67 µM
- TGI (UACC-257 melanoma): 62.5 µM and > 154 µM

Structure (SMILES): COc1ccc2c(c1)CCN1CCCc3ccccc3C21 (stereo not drawn)
- TGI (HS 578T breast): > 100 µM
- TGI (SF-268 CNS): > 100 µM
- TGI (SW-620 colon): > 100 µM
- TGI (U251 CNS): > 100 µM
- TGI (HCT-116 colon): 92.8 µM
- TGI (HOP-92 NSCLC): > 100 µM
- TGI (SK-MEL-2 melanoma): > 100 µM
- TGI (SNB-19 CNS): > 100 µM
- TGI (SK-MEL-5 melanoma): > 100 µM
- TGI (UACC-257 melanoma): > 100 µM

Structure (SMILES): NC(=Nc1ccccc1)c1ccccc1N
- TGI (HS 578T breast): > 100 µM
- TGI (SF-268 CNS): > 100 µM
- TGI (SW-620 colon): > 100 µM
- TGI (U251 CNS): > 100 µM
- TGI (HCT-116 colon): > 100 µM
- TGI (HOP-92 NSCLC): > 100 µM
- TGI (SK-MEL-2 melanoma): > 100 µM
- TGI (SNB-19 CNS): > 100 µM
- TGI (SK-MEL-5 melanoma): > 100 µM
- TGI (UACC-257 melanoma): > 100 µM

Structure (SMILES): O=C(c1ccc(O)c([N+](=O)[O-])c1)c1ccc(O)c([N+](=O)[O-])c1
- TGI (HS 578T breast): > 100 µM
- TGI (SF-268 CNS): > 100 µM
- TGI (SW-620 colon): > 100 µM
- TGI (U251 CNS): > 100 µM
- TGI (HCT-116 colon): > 100 µM
- TGI (HOP-92 NSCLC): > 100 µM
- TGI (SK-MEL-2 melanoma): > 100 µM
- TGI (SNB-19 CNS): > 100 µM
- TGI (SK-MEL-5 melanoma): > 100 µM
- TGI (UACC-257 melanoma): > 100 µM

Structure (SMILES): CCCCCCCCCCCCCCCCCC(=O)Nc1ccn(C2CCC(COP(=O)(O)O)O2)c(=O)n1 (stereo not drawn)
- TGI (HS 578T breast): > 100 µM
- TGI (SF-268 CNS): > 100 µM
- TGI (SW-620 colon): > 100 µM
- TGI (U251 CNS): > 100 µM
- TGI (HCT-116 colon): > 100 µM
- TGI (HOP-92 NSCLC): > 100 µM
- TGI (SK-MEL-2 melanoma): > 100 µM
- TGI (SNB-19 CNS): > 100 µM
- TGI (SK-MEL-5 melanoma): > 100 µM
- TGI (UACC-257 melanoma): > 100 µM

Structure (SMILES): COC1(c2cccs2)c2ccccc2C(OC)(c2cccs2)c2ccccc21 (stereo not drawn)
- TGI (HS 578T breast): 19.8 µM
- TGI (SF-268 CNS): > 100 µM
- TGI (SW-620 colon): > 100 µM
- TGI (U251 CNS): > 100 µM
- TGI (HCT-116 colon): > 100 µM
- TGI (HOP-92 NSCLC): > 100 µM
- TGI (SK-MEL-2 melanoma): > 100 µM
- TGI (SNB-19 CNS): > 100 µM
- TGI (SK-MEL-5 melanoma): > 100 µM
- TGI (UACC-257 melanoma): > 100 µM

Structure (SMILES): O=C1CS[C@@](CC(c2ccc(Cl)cc2)c2ccc(Cl)cc2)(c2ccc(Cl)cc2)N1
- TGI (HS 578T breast): > 100 µM
- TGI (SF-268 CNS): > 100 µM
- TGI (SW-620 colon): > 100 µM
- TGI (U251 CNS): 63.1 µM
- TGI (HCT-116 colon): > 100 µM
- TGI (HOP-92 NSCLC): 75 µM
- TGI (SK-MEL-2 melanoma): 87.6 µM
- TGI (SNB-19 CNS): > 100 µM
- TGI (SK-MEL-5 melanoma): 34.6 µM
- TGI (UACC-257 melanoma): > 100 µM

Structure (SMILES): O=[N+]([O-])c1cccc(Cl)c1Oc1ccc(S(=O)(=O)/N=C(\NO)Nc2ccc(Cl)cc2)cc1
- TGI (HS 578T breast): 27.6 µM
- TGI (SF-268 CNS): 28 µM
- TGI (SW-620 colon): 30.3 µM
- TGI (U251 CNS): 27.5 µM
- TGI (HCT-116 colon): 25 µM
- TGI (HOP-92 NSCLC): 17.1 µM
- TGI (SK-MEL-2 melanoma): 29.6 µM
- TGI (SNB-19 CNS): 30.7 µM
- TGI (SK-MEL-5 melanoma): 24.7 µM
- TGI (UACC-257 melanoma): 26 µM

Structure (SMILES): CCOC(=O)c1[nH]c2cccc3c2c1CC[C@H](NC(=O)C(F)(F)F)C3=O
- TGI (HS 578T breast): 61.8 µM
- TGI (SF-268 CNS): > 100 µM
- TGI (SW-620 colon): > 100 µM
- TGI (U251 CNS): 72.7 µM
- TGI (HCT-116 colon): > 100 µM
- TGI (HOP-92 NSCLC): 69.4 µM
- TGI (SK-MEL-2 melanoma): > 100 µM
- TGI (SNB-19 CNS): 46.3 µM
- TGI (SK-MEL-5 melanoma): > 100 µM
- TGI (UACC-257 melanoma): > 100 µM

Structure (SMILES): CCCN(CCC)C1CCc2c(ccc3cc[nH]c23)C1 (stereo not drawn)
- TGI (HS 578T breast): > 100 µM
- TGI (SF-268 CNS): > 100 µM
- TGI (SW-620 colon): > 100 µM
- TGI (U251 CNS): > 100 µM
- TGI (HCT-116 colon): > 100 µM
- TGI (HOP-92 NSCLC): > 100 µM
- TGI (SK-MEL-2 melanoma): > 100 µM
- TGI (SNB-19 CNS): > 100 µM
- TGI (SK-MEL-5 melanoma): 41.4 µM
- TGI (UACC-257 melanoma): 81.2 µM

Structure (SMILES): CCOc1ccc(/C=C2\NC(=S)N(/C=C3\C(=O)Oc4ccccc4C3=O)C2=O)cc1
- TGI (HS 578T breast): 96.2 µM
- TGI (SF-268 CNS): 68 µM
- TGI (SW-620 colon): > 100 µM
- TGI (U251 CNS): 78.4 µM
- TGI (HCT-116 colon): 39.9 µM
- TGI (HOP-92 NSCLC): 53.4 µM
- TGI (SK-MEL-2 melanoma): 48 µM
- TGI (SNB-19 CNS): 59.8 µM
- TGI (SK-MEL-5 melanoma): 41.5 µM
- TGI (UACC-257 melanoma): 75.8 µM

Structure (SMILES): COC1=C2C=[N+](C)C3C(=C2C=CC1OC)Cc1cc2c(cc13)OCO2 (stereo not drawn)
- TGI (HS 578T breast): 51.2 µM
- TGI (SF-268 CNS): 20.3 µM
- TGI (SW-620 colon): > 100 µM
- TGI (U251 CNS): 30.7 µM
- TGI (HCT-116 colon): 31.5 µM
- TGI (HOP-92 NSCLC): 49.3 µM
- TGI (SK-MEL-2 melanoma): 29.6 µM
- TGI (SNB-19 CNS): 17.2 µM
- TGI (SK-MEL-5 melanoma): 23.2 µM
- TGI (UACC-257 melanoma): 26.2 µM

Structure (SMILES): COC12C=CC(C=C1C#N)CC2 (stereo not drawn) (tested in a mixture with another compound)
- TGI (HS 578T breast): > 100 µM
- TGI (SF-268 CNS): > 100 µM
- TGI (SW-620 colon): > 100 µM
- TGI (U251 CNS): > 100 µM
- TGI (HCT-116 colon): > 100 µM
- TGI (HOP-92 NSCLC): > 100 µM
- TGI (SK-MEL-2 melanoma): > 100 µM
- TGI (SNB-19 CNS): > 100 µM
- TGI (SK-MEL-5 melanoma): > 100 µM
- TGI (UACC-257 melanoma): > 100 µM

Structure (SMILES): Nc1nc(=O)n(C2OC(CO)C(O)C2O)c2ncc(-c3ccc(-c4ccccc4)cc3)nc12 (stereo not drawn)
- TGI (HS 578T breast): > 100 µM
- TGI (SF-268 CNS): > 100 µM
- TGI (SW-620 colon): > 100 µM
- TGI (U251 CNS): 88.9 µM
- TGI (HCT-116 colon): > 100 µM
- TGI (HOP-92 NSCLC): > 100 µM
- TGI (SK-MEL-2 melanoma): > 100 µM
- TGI (SNB-19 CNS): > 100 µM
- TGI (SK-MEL-5 melanoma): > 100 µM
- TGI (UACC-257 melanoma): > 100 µM
